Results reported in paper PMC9027920, “Development of New Thiophene-Containing Triaryl Pyrazoline Derivatives as PI3Kγ Inhibitors” (Molecules, 2022).

Key:
[1] = target: T1, PI3Kα (Homo sapiens, UniProt P42336); assay: competitive fluorescence polarization kinase activity assay, PI3Kα; format: biochemical; details: fluorescence polarization kinase kit
T1 construct: purchased Perkin–Elmer
Text: (§1) Initially, we directly tested the inhibition potency of the synthesized compounds on PI3K by using competitive fluorescence polarization kinase kits, as mentioned in previous investigations. […] According to the significance and research maturity of the isoforms as referenced, the PI3Kα and PI3Kγ isoforms were preliminarily included here.
(§2) The competitive fluorescence polarization kinase activity assay was used to test the inhibition potency on PI3K, as mentioned in previous investigations. In general, following the instruction of the Kit (Perkin–Elmer, Waltham, MA, USA), the 10 μL scale of PI3K activity reaction was conducted with the substrate diC8-PI(4,5)P2 in a solution containing 2.5 mM MgCl2, 5 mM HEPES, […] and 10 mM DTT at pH 7.0. Into the 10 μL reaction wells with 50 ng enzyme and […], different concentrations of the tested compounds were added, respectively. The mixture was incubated at room temperature for 3 h, and the reactions were then quenched. Afterwards, the phosphoinositide binding protein and the fluorescent dye-labeled phosphoinositide tracer were added in sequence. In the dark environment in 384-well black nonbinding plates (Corning, Corning, NY, USA), the further incubation lasted for 1 h. With appropriate filters, the polarization values of the corresponding dye were recorded to calculate the enzymatic activity of PI3K in this reacting procedure. This assay was universal for evaluating the activity of different PI3K isoforms.

[2] = target: T2, PI3Kγ (Homo sapiens, UniProt P48736); assay: competitive fluorescence polarization kinase activity assay, PI3Kγ; format: biochemical; details: for IC50: fluorescence polarization kinase kit; for selectivity index: ratio of the IC50 values for PI3Kα and PI3Kγ
T2 construct: purchased Perkin–Elmer
Text: as §1, §2

[3] = cytotoxicity, MTT, L02 cells; format: cell-based; details: human, L02 cells (human normal hepatocyte line)
Description: (§3) In this section, the anti-proliferation activity of the synthesized compounds 3a–3t was evaluated. Herein, HeLa (human epithelial cervical cancer cell line), HepG2 (human hepatoellular carcinoma cell line) and L02 (human normal hepatocyte line) cells were used. According to the affection on L02 cells, most of the tested compounds were low-toxic. […] Basically, many of the compounds in this series could inhibit the growth of HeLa and HepG2 cells effectively. The anti-proliferation inhibitory activity and the enzymatic inhibition potency indicated the consistent tendencies; the SAR of the observed anti-proliferation activity was also similar to that of the enzymatic inhibition, especially that of PI3Kγ inhibition; thus, the cellular inhibition might be caused by the effect on PI3K. […] Thus, HepG2 cells were selected to conduct further investigations at the protein level.
(§4) In this section, the cells included HeLa (human epithelial cervical cancer cell line), HepG2 (human hepatocellular cancer cell line) and L02 (human normal hepatocyte line) to evaluate the anti-proliferation activity of the synthesized compounds. The cells were cultured in Dulbecco’s modified eagle medium (DMEM, Hyclone) with the addition of 10% fetal bovine serum (FBS, BI), 2 mmol/L L-glutamine, 100 units/mL penicillin-streptomycin (Sigma-Aldrich, Saint Louis, MO, USA), […] (Hyclone, Logan, UT, USA). The environment was 5% CO2 contained atmosphere at 37 °C. The tests of anti-proliferative activity were conducted under a standard method with the typical dye 3-(4,5-dimethylthiazol-2-yl)-2,5-diphenyltetrazolium bromide (MTT) in triplicate. The LX300 Epson Diagnostic micro-plate reader (Nagano, Japan) was used to record the absorbance at 570 nm (OD570).

[4] = tested on: HeLa (human epithelial cervical cancer cell line) cells; assay: anti-proliferation assay, MTT, HeLa cells; format: cell-based
Description: as §3, §4

[5] = tested on: HepG2 (human hepatocellular cancer cell line) cells; assay: anti-proliferation assay, MTT, HepG2 cells; format: cell-based; details: read-out: GI50 HepG2γ
Description: as §3, §4

T2 sequence (P48736 whole entry, species assumed): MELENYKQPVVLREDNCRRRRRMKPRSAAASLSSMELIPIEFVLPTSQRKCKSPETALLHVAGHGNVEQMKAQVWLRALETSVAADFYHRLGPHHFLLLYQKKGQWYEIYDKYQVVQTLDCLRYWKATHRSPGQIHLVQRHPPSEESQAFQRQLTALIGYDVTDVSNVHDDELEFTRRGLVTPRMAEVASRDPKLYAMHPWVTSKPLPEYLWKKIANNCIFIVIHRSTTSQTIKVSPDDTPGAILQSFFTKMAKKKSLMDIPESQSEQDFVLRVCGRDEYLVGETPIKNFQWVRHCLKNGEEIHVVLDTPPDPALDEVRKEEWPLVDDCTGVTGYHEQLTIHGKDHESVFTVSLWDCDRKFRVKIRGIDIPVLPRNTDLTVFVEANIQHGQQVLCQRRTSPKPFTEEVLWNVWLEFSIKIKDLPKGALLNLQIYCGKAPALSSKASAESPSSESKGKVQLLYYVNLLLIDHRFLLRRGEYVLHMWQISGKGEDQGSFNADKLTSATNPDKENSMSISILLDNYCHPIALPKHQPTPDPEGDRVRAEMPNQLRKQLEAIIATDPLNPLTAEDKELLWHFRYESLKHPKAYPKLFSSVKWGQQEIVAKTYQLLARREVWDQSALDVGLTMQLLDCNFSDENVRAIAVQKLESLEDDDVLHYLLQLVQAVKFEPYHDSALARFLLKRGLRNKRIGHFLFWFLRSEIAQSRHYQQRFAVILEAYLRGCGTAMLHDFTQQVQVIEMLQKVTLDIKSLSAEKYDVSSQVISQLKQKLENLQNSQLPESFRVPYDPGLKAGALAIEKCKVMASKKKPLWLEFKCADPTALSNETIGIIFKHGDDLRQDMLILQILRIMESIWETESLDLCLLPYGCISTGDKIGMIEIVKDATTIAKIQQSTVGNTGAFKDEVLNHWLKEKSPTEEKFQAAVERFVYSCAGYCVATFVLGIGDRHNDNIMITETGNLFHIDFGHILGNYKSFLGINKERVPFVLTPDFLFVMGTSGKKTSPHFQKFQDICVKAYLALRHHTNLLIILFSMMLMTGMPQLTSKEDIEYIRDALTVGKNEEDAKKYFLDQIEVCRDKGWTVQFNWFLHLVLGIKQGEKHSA
T1 sequence (P42336 whole entry, species assumed): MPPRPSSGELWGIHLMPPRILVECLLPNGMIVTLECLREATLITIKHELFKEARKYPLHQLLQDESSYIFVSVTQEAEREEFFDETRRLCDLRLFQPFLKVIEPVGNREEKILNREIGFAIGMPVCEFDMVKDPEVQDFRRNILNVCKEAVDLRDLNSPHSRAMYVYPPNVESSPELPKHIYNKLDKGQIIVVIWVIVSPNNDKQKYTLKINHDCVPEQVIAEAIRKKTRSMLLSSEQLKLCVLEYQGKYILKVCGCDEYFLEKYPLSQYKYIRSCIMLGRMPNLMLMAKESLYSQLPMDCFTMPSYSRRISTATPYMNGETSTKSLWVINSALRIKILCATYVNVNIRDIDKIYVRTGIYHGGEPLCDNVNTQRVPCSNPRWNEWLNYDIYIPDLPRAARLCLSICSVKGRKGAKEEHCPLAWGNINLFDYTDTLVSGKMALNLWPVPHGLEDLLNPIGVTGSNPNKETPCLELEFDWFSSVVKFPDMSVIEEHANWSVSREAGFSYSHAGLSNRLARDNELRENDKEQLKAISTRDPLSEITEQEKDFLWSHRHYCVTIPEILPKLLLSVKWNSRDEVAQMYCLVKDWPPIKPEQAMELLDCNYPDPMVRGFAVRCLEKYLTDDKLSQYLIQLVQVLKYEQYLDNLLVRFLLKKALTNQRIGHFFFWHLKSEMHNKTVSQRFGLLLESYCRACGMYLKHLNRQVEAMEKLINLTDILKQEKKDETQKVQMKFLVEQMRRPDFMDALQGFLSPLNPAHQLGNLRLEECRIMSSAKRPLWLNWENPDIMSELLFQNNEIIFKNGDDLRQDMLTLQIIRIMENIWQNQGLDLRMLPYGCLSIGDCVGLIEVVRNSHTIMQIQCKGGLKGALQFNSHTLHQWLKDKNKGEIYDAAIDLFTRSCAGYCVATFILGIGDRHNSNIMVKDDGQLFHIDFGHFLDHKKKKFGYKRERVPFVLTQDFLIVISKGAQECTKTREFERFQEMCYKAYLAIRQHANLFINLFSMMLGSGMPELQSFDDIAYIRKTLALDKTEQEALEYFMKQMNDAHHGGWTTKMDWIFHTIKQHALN
T1 sequence (P27986 whole entry partner, species assumed): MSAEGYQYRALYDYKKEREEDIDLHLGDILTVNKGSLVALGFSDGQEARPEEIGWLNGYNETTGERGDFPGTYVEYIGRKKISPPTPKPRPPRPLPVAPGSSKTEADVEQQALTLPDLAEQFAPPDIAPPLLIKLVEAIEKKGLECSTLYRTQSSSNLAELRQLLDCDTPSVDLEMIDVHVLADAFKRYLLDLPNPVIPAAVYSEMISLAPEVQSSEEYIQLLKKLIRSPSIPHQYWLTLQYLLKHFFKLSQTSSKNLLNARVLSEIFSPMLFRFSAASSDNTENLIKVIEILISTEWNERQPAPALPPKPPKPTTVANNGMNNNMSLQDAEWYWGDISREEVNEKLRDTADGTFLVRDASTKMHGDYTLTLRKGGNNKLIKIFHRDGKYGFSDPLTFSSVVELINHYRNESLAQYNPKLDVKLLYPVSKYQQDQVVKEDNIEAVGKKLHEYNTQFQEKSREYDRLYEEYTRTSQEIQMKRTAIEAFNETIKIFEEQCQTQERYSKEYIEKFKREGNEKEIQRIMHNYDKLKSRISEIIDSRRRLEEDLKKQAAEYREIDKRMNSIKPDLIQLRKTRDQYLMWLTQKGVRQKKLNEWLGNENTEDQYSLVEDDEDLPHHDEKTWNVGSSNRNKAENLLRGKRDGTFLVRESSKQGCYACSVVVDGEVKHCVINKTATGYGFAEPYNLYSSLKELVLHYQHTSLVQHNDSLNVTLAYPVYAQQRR

SMILES | IC50 [1] | IC50 [2] | GI50 [4] | GI50 [5] | melting point | selectivity index [2] | CC50 [3]
COc1ccc(C(=O)N2N=C(c3cccc(F)c3)CC2c2cccs2)cc1OC (centres unmarked) [3c, (3,4-Dimethoxyphenyl)(3-(3-fluorophenyl)-5-(thiophen-2-yl)-4,5-dihydro-1H-pyrazol-1-yl)methanone] | 30.9 ± 1.3 µM | 4.21 ± 0.072 µM | 26.3 ± 1.7 µM | 20.4 ± 2 µM | 50 to 51 °C | – | 94.5 ± 4.3 µM
COc1ccc(C(=O)N2N=C(c3cccc(Br)c3)CC2c2cccs2)cc1OC (centres unmarked) [3d, (3-(3-Bromophenyl)-5-(thiophen-2-yl)-4,5-dihydro-1H-pyrazol-1-yl)(3,4-dimethoxyphenyl)methanone] | 78.7 ± 4 µM | 2.22 ± 0.072 µM | 57.1 ± 2.6 µM | 42.6 ± 1.9 µM | 124 to 126 °C | – | 120 ± 4.7 µM
COc1ccc(C(=O)N2N=C(c3ccc(SC)cc3)CC2c2cccs2)cc1OC (centres unmarked) [3h, (3-(4-((λ^1-Sulfanyl)-λ^5-methyl)phenyl)-5-(thiophen-2-yl)-4,5-dihydro-1H-pyrazol-1-yl) (3,4-dimethoxyphenyl)methanone] | 64.4 ± 3.6 µM | 18.1 ± 1.7 µM | 61.3 ± 2.3 µM | 53.3 ± 1.9 µM | 63 to 65 °C | – | 180 ± 4.6 µM
COc1ccc(C(=O)N2N=C(c3ccc(C)cc3)CC2c2cccs2)cc1OC (centres unmarked) [3i, (3,4-Dimethoxyphenyl)(5-(thiophen-2-yl)-3-(p-tolyl)-4,5-dihydro-1H-pyrazol-1-yl)methanone] | 89.5 ± 3.4 µM | 3.03 ± 0.085 µM | 66.6 ± 1.2 µM | 48.7 ± 1.8 µM | 165 to 167 °C | – | 151 ± 8.9 µM
COc1ccc(C(=O)N2N=C(c3ccc(-c4ccccc4)cc3)CC2c2cccs2)cc1OC (centres unmarked) [3j, (3-([1,1’-Biphenyl]-4-yl)-5-(thiophen-2-yl)-4,5-dihydro-1H-pyrazol-1-yl)(3,4-dimethoxyphenyl)methanone] | 3.92 ± 0.064 µM | > 100 µM | 75.7 ± 2.9 µM | 50.6 ± 1 µM | 154 to 156 °C | – | 196 ± 10 µM
COc1ccc(C(=O)N2N=C(c3ccc(-c4ccc(Br)cc4)cc3)CC2c2cccs2)cc1OC (centres unmarked) [3k, (3-(4’-Bromo-[1,1’-biphenyl]-4-yl)-5-(thiophen-2-yl)-4,5-dihydro-1H-pyrazol-1-yl)(3,4-dimethoxyphenyl)methanone] | 1.1 ± 0.061 µM | 42.7 ± 2.6 µM | 44.6 ± 2.1 µM | 46.6 ± 1.3 µM | 75 to 77 °C | – | 178 ± 8.7 µM
COc1ccc(C(=O)N2N=C(c3ccc(Br)cc3)CC2c2cccs2)cc1OC (centres unmarked) [3l, (3-(4-Bromophenyl)-5-(thiophen-2-yl)-4,5-dihydro-1H-pyrazol-1-yl)(3,4-dimethoxyphenyl)methanone] | 17.1 ± 0.58 µM | 5.11 ± 0.083 µM | 20.1 ± 1.7 µM | 15.5 ± 0.87 µM | 71 to 73 °C | – | 86.6 ± 3.5 µM
COc1ccc(C(=O)N2N=C(c3ccc(I)cc3)CC2c2cccs2)cc1OC (centres unmarked) [3m, (3,4-Dimethoxyphenyl)(3-(4-iodophenyl)-5-(thiophen-2-yl)-4,5-dihydro-1H-pyrazol-1-yl)methanone] | 75.6 ± 2.4 µM | 2.52 ± 0.055 µM | 57.9 ± 3.6 µM | 40.1 ± 1.4 µM | 69 to 71 °C | – | 141 ± 5.6 µM
COc1ccc2cc(C3=NN(C(=O)c4ccc(OC)c(OC)c4)C(c4cccs4)C3)ccc2c1 (centres unmarked) [3p, (3-(6-((λ1-Oxidanyl)-λ^5-methyl)naphthalen-2-yl)-5-(thiophen-2-yl)-4,5-dihydro-1H-pyrazol-1-yl)(3,4-dimethoxyphenyl)methanone] | 0.56 ± 0.045 µM | 3.76 ± 0.19 µM | 6.81 ± 0.24 µM | 6.31 ± 0.54 µM | 74 to 76 °C | – | 67.1 ± 3.9 µM
COc1ccc(C(=O)N2N=C(c3ccc(OC)c(OC)c3)CC2c2cccs2)cc1OC (centres unmarked) [3q, (3,4-Dimethoxyphenyl)(3-(3,4-dimethoxyphenyl)-5-(thiophen-2-yl)-4,5-dihydro-1H-pyrazol-1-yl)methanone] | 5.24 ± 0.13 µM | 0.43 ± 0.036 µM | 4.72 ± 0.12 µM | 4.22 ± 0.13 µM | 127 to 128 °C | 12.2 | 41.3 ± 2.6 µM

More lines, in order of falling GI50 [4], values ahead:

IC50 [1] | IC50 [2] | GI50 [4] | GI50 [5] | melting point | selectivity index [2] | SMILES | CC50 [3]
> 100 µM | 7.48 ± 0.22 µM | 109 ± 5.8 µM | 61.1 ± 3.2 µM | 141 to 143 °C | – | COc1ccc(C(=O)N2N=C(c3ccccc3)CC2c2cccs2)cc1OC (centres unmarked) [3a, (3,4-Dimethoxyphenyl)(3-phenyl-5-(thiophen-2-yl)-4,5-dihydro-1H-pyrazol-1-yl)methanone] | 174 ± 10 µM
> 100 µM | 4.43 ± 0.2 µM | 77.9 ± 3.9 µM | 50.2 ± 1.6 µM | 118 to 120 °C | – | COc1ccc(C(=O)N2N=C(c3ccccc3F)CC2c2cccs2)cc1OC (centres unmarked) [3b, (3,4-Dimethoxyphenyl)(3-(2-fluorophenyl)-5-(thiophen-2-yl)-4,5-dihydro-1H-pyrazol-1-yl)methanone] | 152 ± 9.5 µM
0.92 ± 0.056 µM | 26.9 ± 1.4 µM | 31.6 ± 0.9 µM | 31.6 ± 1.4 µM | 60 to 62 °C | – | COc1ccc(C(=O)N2N=C(c3ccc(OCc4ccccc4)cc3)CC2c2cccs2)cc1OC (centres unmarked) [3g, (3-(4-(Benzyloxy)phenyl)-5-(thiophen-2-yl)-4,5-dihydro-1H-pyrazol-1-yl)(3,4-dimethoxyphenyl)methanone] | 104 ± 5.4 µM
26.6 ± 1.01 µM | 0.57 ± 0.044 µM | 23.7 ± 1.2 µM | 15.1 ± 0.42 µM | 53 to 55 °C | 46.7 | COc1ccc(C2=NN(C(=O)c3ccc(OC)c(OC)c3)C(c3cccs3)C2)cc1 (centres unmarked) [3f, (3,4-Dimethoxyphenyl)(3-(4-methoxyphenyl)-5-(thiophen-2-yl)-4,5-dihydro-1H-pyrazol-1-yl)methanone] | 112 ± 8.3 µM
– | – | 21.1 ± 2 µM | 26.5 ± 1.9 µM | – | – | O=c1cc(N2CCOCC2)oc2c(-c3ccccc3)cccc12 [LY294002, reference compound] | 51.3 ± 1.4 µM
8.81 ± 0.17 µM | 9.91 ± 0.26 µM | 18.1 ± 0.85 µM | 16.9 ± 0.36 µM | 72 to 74 °C | – | COc1ccc(C(=O)N2N=C(c3ccc(OC)c4ccccc34)CC2c2cccs2)cc1OC (centres unmarked) [3o, (3,4-Dimethoxyphenyl)(3-(4-methoxynaphthalen-1-yl)-5-(thiophen-2-yl)-4,5-dihydro-1H-pyrazol-1-yl)methanone] | 137 ± 4.7 µM
12 ± 1.1 µM | 1.79 ± 0.049 µM | 11.1 ± 1.2 µM | 8.85 ± 0.31 µM | 149 to 151 °C | – | COc1ccc(C(=O)N2N=C(c3ccc4ccccc4c3)CC2c2cccs2)cc1OC (centres unmarked) [3n, (3,4-Dimethoxyphenyl)(3-(naphthalen-2-yl)-5-(thiophen-2-yl)-4,5-dihydro-1H-pyrazol-1-yl)methanone] | 62.6 ± 2.6 µM
2.08 ± 0.099 µM | 1.12 ± 0.081 µM | 5.9 ± 0.2 µM | 5.51 ± 0.2 µM | 76 to 78 °C | – | COc1ccc(C(=O)N2N=C(c3cccc([N+](=O)[O-])c3)CC2c2cccs2)cc1OC (centres unmarked) [3e, (3,4-Dimethoxyphenyl)(3-(3-nitrophenyl)-5-(thiophen-2-yl)-4,5-dihydro-1H-pyrazol-1-yl)methanone] | 58.4 ± 2.6 µM
